Eight compounds from PubChem BioAssay (NCI) can be followed below.

Some test systems named below: DU-145 prostate; HT29 colon; IGROV1 ovarian; MOLT-4 leukemia; OVCAR-4 ovarian; OVCAR-3 ovarian; CAKI-1 renal; HCT-15 colon; CCRF-CEM leukemia; U251 CNS; SK-MEL-2 melanoma; SK-MEL-5 melanoma; HOP-92 NSCLC; UO-31 renal; MDA-MB-231 breast; HCC-2998 colon; SF-268 CNS; MCF7 breast; RPMI-8226 leukemia.
Experiment in all cases: NCI-60 cell line screen, 48 h

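In this assay, cells in 96-well plates receive the compound at five concentrations for 48 hours. Endpoints are linearly interpolated between the surrounding concentrations. TGI: total growth inhibition.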

In the case of `CC[C@](O)(CC(=O)O[C@H]1C(=O)O[C@@H]2C[C@H]3C(C)=CC(=O)[C@@H](O)[C@]3(C)[C@H]3[C@@]4(O)OC[C@]32[C@@H]1[C@@H](C)[C@H]4O)C(C)C`, the TGI is less than 0.01 µM in the assay on DU-145 prostate; less than 0.01 µM in the assay with HT29 colon; less than 0.01 µM with IGROV1 ovarian; less than 0.01 µM in the assay on MOLT-4 leukemia; less than 0.0144 µM with OVCAR-4 ovarian; less than 0.01 µM in the assay on OVCAR-3 ovarian. Besides, the TGI in the assay with CAKI-1 renal is 0.0398 µM; in the assay on HCT-15 colon, less than 0.0117 µM; in the assay with CCRF-CEM leukemia, less than 0.01 µM; in the assay on U251 CNS, less than 0.01 µM; with SK-MEL-2 melanoma, less than 0.01 µM; in the assay with SK-MEL-5 melanoma, less than 0.01 µM. The TGI in the assay on HOP-92 NSCLC is less than 0.01 µM; in the assay on UO-31 renal it was 0.0447 µM; with MDA-MB-231 breast, less than 0.0119 µM; with HCC-2998 colon, less than 0.01 µM; in the assay on SF-268 CNS, less than 0.01 µM; in the assay with MCF7 breast it was less than 0.0392 µM.
Regarding `COc1ccc2c(c1)/C(=C\c1c(C)nc3n1CCS3)C(=O)N2`, the TGI in the assay with DU-145 prostate is more than 100 µM; in the assay on HT29 colon, more than 100 µM; with IGROV1 ovarian, more than 100 µM; with MOLT-4 leukemia, more than 100 µM; with OVCAR-3 ovarian, 76 µM; in the assay with CAKI-1 renal, more than 100 µM. For the same compound, the TGI with RPMI-8226 leukemia was more than 100 µM; in the assay with HCT-15 colon it was more than 100 µM; in the assay on CCRF-CEM leukemia, more than 100 µM; in the assay with U251 CNS, 60 µM; with SK-MEL-2 melanoma, more than 100 µM; in the assay on SK-MEL-5 melanoma, more than 100 µM. The TGI in the assay on HOP-92 NSCLC, with UO-31 renal, in the assay on MDA-MB-231 breast, in the assay on HCC-2998 colon and in the assay on MCF7 breast was more than 100 µM each time.
On to `C/C1=C/C(C)CC(C)OC(=O)C(C)NC(=O)C(Cc2ccc(O)c(I)c2)N(C)C(=O)CNC(=O)C(C)C1` (configuration not stated), for which the TGI in the assay on DU-145 prostate is more than 100 µM; in the assay with HT29 colon it was more than 100 µM; in the assay on IGROV1 ovarian it was 0.0236 µM; in the assay with MOLT-4 leukemia, more than 52.7 µM; in the assay on OVCAR-3 ovarian, less than 0.01 µM; with CAKI-1 renal it was less than 0.01 µM. The TGI was 0.757 µM with RPMI-8226 leukemia; 11.2 µM with HCT-15 colon; less than 0.01 µM in the assay on CCRF-CEM leukemia; 0.0707 µM in the assay on U251 CNS; 10.2 µM in the assay with SK-MEL-2 melanoma; 13.2 µM with SK-MEL-5 melanoma. For the same compound, the TGI with HOP-92 NSCLC was 0.0654 µM; in the assay with UO-31 renal, 0.035 µM; with MDA-MB-231 breast it was 1.99 µM; in the assay with HCC-2998 colon, 13.2 µM; in the assay with SF-268 CNS, 1.35 µM; with MCF7 breast it was more than 100 µM.
Turning to `COc1ccc(OC)c2sc(N3C(=O)/C(=C/c4ccc(Cl)cc4)N=C3c3ccccc3)nc12`, the TGI was more than 100 µM in the assay with DU-145 prostate; more than 100 µM in the assay with HT29 colon; more than 100 µM in the assay with IGROV1 ovarian; 66.8 µM with MOLT-4 leukemia; more than 100 µM in the assay with OVCAR-3 ovarian; more than 100 µM in the assay on CAKI-1 renal. For the same compound, the TGI with RPMI-8226 leukemia, in the assay with HCT-15 colon, in the assay on CCRF-CEM leukemia, in the assay with U251 CNS, in the assay with SK-MEL-2 melanoma and in the assay with SK-MEL-5 melanoma was more than 100 µM throughout. For the same compound, the TGI in the assay on HOP-92 NSCLC is more than 100 µM; with UO-31 renal, more than 100 µM; in the assay on MDA-MB-231 breast, more than 100 µM; with HCC-2998 colon, more than 100 µM; in the assay with SF-268 CNS it was more than 100 µM; with MCF7 breast, 79.2 µM.
For the compound `O=C1CC(CC(O)[C@@H]2CCCC[C@@H]2O)CC(=O)N1c1ccccc1` (some centres not stated), the TGI with DU-145 prostate, in the assay with HT29 colon, in the assay with IGROV1 ovarian, in the assay with MOLT-4 leukemia, in the assay on OVCAR-4 ovarian and in the assay with OVCAR-3 ovarian was more than 100 µM throughout. Also, the TGI in the assay with CAKI-1 renal, with RPMI-8226 leukemia, in the assay on HCT-15 colon, with CCRF-CEM leukemia, in the assay on U251 CNS and in the assay with SK-MEL-5 melanoma was more than 100 µM each time. For the same compound, the TGI in the assay with HOP-92 NSCLC, in the assay on UO-31 renal, with MDA-MB-231 breast, with HCC-2998 colon, in the assay on SF-268 CNS and with MCF7 breast was more than 100 µM each time.
With `COC(=O)C(Cc1cn(C(C)=O)c2ccccc12)P(=O)(OC)OC` (configuration not stated), the TGI in the assay on DU-145 prostate, in the assay with HT29 colon, in the assay on IGROV1 ovarian, in the assay with OVCAR-4 ovarian, in the assay on OVCAR-3 ovarian and in the assay on CAKI-1 renal was more than 100 µM in each case. Moreover, the TGI with RPMI-8226 leukemia, in the assay on HCT-15 colon, in the assay with CCRF-CEM leukemia, in the assay on U251 CNS, in the assay with SK-MEL-5 melanoma and in the assay with HOP-92 NSCLC was more than 100 µM throughout. The TGI in the assay with UO-31 renal, in the assay with MDA-MB-231 breast, with HCC-2998 colon, with SF-268 CNS and in the assay with MCF7 breast was more than 100 µM in each case.
For the compound `COc1cc(C2SCC(=O)N2c2ccccc2Cl)cc(OC)c1OC` (configuration not stated), the TGI with DU-145 prostate, with HT29 colon, in the assay with IGROV1 ovarian, in the assay with OVCAR-4 ovarian, in the assay with OVCAR-3 ovarian and in the assay with CAKI-1 renal was more than 100 µM each time. The TGI in the assay with RPMI-8226 leukemia, with HCT-15 colon, in the assay with CCRF-CEM leukemia, in the assay on U251 CNS, with SK-MEL-2 melanoma and with SK-MEL-5 melanoma was more than 100 µM each time. The TGI in the assay with HOP-92 NSCLC, in the assay with UO-31 renal, in the assay on MDA-MB-231 breast, with HCC-2998 colon, in the assay with SF-268 CNS and in the assay on MCF7 breast was more than 100 µM in each case.
For the compound `CCC(C)C(C(=O)N/N=C1/SCC(=O)N1c1ccccc1)C(=O)N/N=C1/SCC(=O)N1c1ccccc1` (configuration not stated), the TGI is more than 100 µM in the assay with DU-145 prostate; more than 100 µM in the assay on HT29 colon; more than 100 µM with IGROV1 ovarian; more than 100 µM in the assay with MOLT-4 leukemia; 33.3 µM in the assay with OVCAR-4 ovarian; more than 100 µM with OVCAR-3 ovarian. For the same compound, the TGI is more than 100 µM in the assay with CAKI-1 renal; more than 100 µM in the assay on HCT-15 colon; more than 100 µM in the assay with CCRF-CEM leukemia; more than 100 µM in the assay with U251 CNS; 83.1 µM in the assay on SK-MEL-2 melanoma; 41.7 µM in the assay with SK-MEL-5 melanoma. Moreover, the TGI in the assay on HOP-92 NSCLC is 45.2 µM; with UO-31 renal, more than 100 µM; in the assay with MDA-MB-231 breast, 88.7 µM; in the assay on HCC-2998 colon, more than 100 µM; in the assay on SF-268 CNS it was more than 100 µM; in the assay on MCF7 breast, more than 100 µM.
